Results as given in patent publication US10278950B2, “Therapeutic agents containing cannabis flavonoid derivative for ocular disorders” (priority 2015, dated 2019).

Molecular target: T1, BIKE (BMP2K) kinase (Homo sapiens, UniProt Q9NSY1)
T1 construct: made in house
Assay: Kinase inhibition assay (competition binding assay)
Details: qualitative statement; dose response curve only in FIG. 3, no values given
Description: Cannabis flavonoids and their analogs were subjected to kinase inhibition assay. The compounds were first screened at a single concentration of 10 μM in the primary assay. Compounds inhibiting at least 70% of specific kinases were subjected to further screening to determine kd values. To determine the kd values, competition binding assays were established, authenticated and executed as described previously (Fabian et al., 2005, Karaman et al., 2008). For most assays, kinases were fused to T7 phage strains (Fabian et al. 2005) and for the other assays, kinases were produced in HEK-293 cells after which they were tagged with DNA for quantitative PCR detection (data not shown). In general, full-length constructs were used for small, single domain kinases, and catalytic domain constructs for large multi-domain kinases. The binding assays utilized streptavidin-coated magnetic beads treated with biotinylated small molecule ligands for 30 minutes at room temperature which generated affinity resins for the kinase assays. The liganded beads were blocked with excess biotin and washed with blocking buffer (SeaBlock (Pierce), 1% BSA, 0.05% Tween 20, 1 mM DTT) to remove unbound ligand and to reduce non-specific phage binding. Binding reactions were assembled by combining kinases, liganded affinity beads, and test compounds in 1× binding buffer (20% SeaBlock, 0.17×PBS, 0.05% Tween 20, 6 mM DTT). Test compounds were prepared as 40× stocks in 100% DMSO and diluted directly into the assay (Final DMSO concentration=2.5%). All reactions were performed in polypropylene 384-well plates in a final volume of 0.04 ml. The assay plates were incubated at room temperature with shaking for 1 hour and the affinity beads were washed with wash buffer (1×PBS, 0.05% Tween 20). The beads were then re-suspended in elution buffer (1×PBS, 0.05% Tween 20, 0.5 μM non-biotinylated affinity ligand) and incubated at room temperature with shaking for 30 minutes. The kinase concentration in the eluates was measured by quantitative PCR. Kd values were determined using a standard dose response curve using the hill equation. Curves were fitted using a non-linear least square fit with the Levenberg-Marquardt algorithm.

T1 sequence (Q9NSY1 whole entry): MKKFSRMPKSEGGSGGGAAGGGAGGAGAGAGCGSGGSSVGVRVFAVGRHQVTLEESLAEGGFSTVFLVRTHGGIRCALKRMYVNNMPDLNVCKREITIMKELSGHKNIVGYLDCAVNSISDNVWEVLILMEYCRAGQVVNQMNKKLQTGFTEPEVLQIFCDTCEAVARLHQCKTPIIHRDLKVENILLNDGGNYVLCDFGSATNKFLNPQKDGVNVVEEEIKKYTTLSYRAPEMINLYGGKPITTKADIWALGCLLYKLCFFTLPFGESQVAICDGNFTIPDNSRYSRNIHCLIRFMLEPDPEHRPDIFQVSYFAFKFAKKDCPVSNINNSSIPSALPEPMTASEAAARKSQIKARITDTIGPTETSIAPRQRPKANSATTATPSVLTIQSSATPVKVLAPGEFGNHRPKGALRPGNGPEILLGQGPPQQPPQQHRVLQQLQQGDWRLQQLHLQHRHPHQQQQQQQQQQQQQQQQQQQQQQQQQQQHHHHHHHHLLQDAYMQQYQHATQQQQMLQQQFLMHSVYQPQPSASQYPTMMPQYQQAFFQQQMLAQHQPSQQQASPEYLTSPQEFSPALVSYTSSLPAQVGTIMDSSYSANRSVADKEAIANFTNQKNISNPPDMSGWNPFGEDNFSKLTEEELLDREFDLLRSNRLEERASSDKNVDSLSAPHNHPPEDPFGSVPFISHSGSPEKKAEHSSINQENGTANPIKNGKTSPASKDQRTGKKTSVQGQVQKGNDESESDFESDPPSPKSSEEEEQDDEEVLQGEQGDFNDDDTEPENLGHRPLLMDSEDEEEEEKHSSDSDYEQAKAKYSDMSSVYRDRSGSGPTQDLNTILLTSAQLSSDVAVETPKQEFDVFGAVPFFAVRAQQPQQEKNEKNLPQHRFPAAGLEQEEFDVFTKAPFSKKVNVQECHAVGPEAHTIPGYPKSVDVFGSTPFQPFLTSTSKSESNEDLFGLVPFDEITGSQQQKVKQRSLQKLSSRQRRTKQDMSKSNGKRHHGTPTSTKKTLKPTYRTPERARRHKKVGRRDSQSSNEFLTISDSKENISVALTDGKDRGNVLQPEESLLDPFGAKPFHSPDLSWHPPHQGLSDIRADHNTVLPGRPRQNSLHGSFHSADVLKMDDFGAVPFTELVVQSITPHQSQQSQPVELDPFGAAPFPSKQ

Row | SMILES | ability to inhibit the BMP2K kinase
1 | COc1cc(-c2cc(=O)c3c(O)cc(O)c(C/C=C(\C)CCC=C(C)C)c3o2)ccc1O [cannflavin C] | demonstrated ability to inhibit
2 | COc1cc(-c2cc(=O)c3c(O)c(CC=C(C)C)c(O)cc3o2)ccc1O [cannflavin B] | demonstrated ability to inhibit
3 | COc1cc(-c2cc(=O)c3c(O)c(C/C=C(\C)CCC=C(C)C)c(O)cc3o2)ccc1O [cannflavin A] | demonstrated ability to inhibit
4 | COc1cc(-c2cc(=O)c3c(O)cc(O)c(CC=C(C)C)c3o2)ccc1O [isocannflavin B] | demonstrated ability to inhibit
